In patent publication US20230031406A1, “COMPOUNDS AND COMPOSITIONS FOR TREATING CONDITIONS ASSOCIATED WITH NLRP ACTIVITY” (Novartis AG, priority 2018, published 2023):
Read-outs that look alike come from different tables or passages of the source. Values belong to the molecule of their own block, whether it stands above or below them.

System: PMA-differentiated THP-1 cells
Assay: IL-1β production in PMA-differentiated THP-1 cells stimulated with gramicidin (hTHP-1 assay containing 2% fetal bovine serum; Procedures 1 and 2)
Format: cell-based, human
Conditions: 2% fetal bovine serum
Summary of the method: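 Compound titrations in 0.37% final DMSO were added to THP-1 cells that had been plated after 16-18 h PMA treatment, 50,000 per well in 2% FBS. One hour later the cells received gramicidin (5 μM, 2 h) and were centrifuged. HTRF detected IL-1β in the collected supernatants.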

[1] = Homo sapiens, THP-1, Table B2, class symbols, read-out: hTHP-1 IC50
[2] = Table B1, class symbols, read-out: Average IC50 of compounds in hTHP-1 assay: hTHP-1 IC50

IC50 (Homo sapiens, THP-1, Table B1, class symbols, read-out: Average IC50 of compounds in hTHP-1 assay: hTHP-1 IC50): 5 to 30 µM
Compound: Cc1nc(C(C)(C)O)ccc1S(N)(=O)=NC(=O)Nc1c2c(nc3c1CCC3)CCC2 (single isomer, unassigned) [Compound 157b, (R) or (S)-N′-((1,2,3,5,6,7-hexahydrodicyclo-penta[b,e]pyridin-8-yl)carbamoyl)-6-(2-hydroxypropan-2-yl)-2-methylpyridine-3-sulfonimidamide]

IC50 [1]: 1 to 5 µM
Compound: CNS(=O)(=O)c1cccc(S(N)(=O)=NC(=O)Nc2c3c(nc4c2CCC4(C)C)CCC3)c1 (stereo not drawn) [Compound 735, 3-(N′-((3,3-dimethyl-1,2,3,5,6,7-hexahydrodicyclopenta [b,e]pyridin-8-yl)carbamoyl)sulfamidimidoyl)-N-methylbenzenesulfonamide]

IC50 (Homo sapiens, THP-1, Table B3, hTHP-1 assay, numeric values, read-out: IC50): > 30 µM
Compound: Cc1c(C2(C)CC2)nc2c(c1NC(=O)N=S(N)(=O)c1cnc(C(C)(O)CO)s1)CCC2 (stereo not drawn) [Example 606, 2-(1,2-Dihydroxypropan-2-yl)-N′-((3-methyl-2-(1-methylcyclopropyl)-6,7-dihydro-5H-cyclopenta[b]pyridin-4-yl)carbamoyl)thiazole-5-sulfonimidamide]

IC50 [1]: 0.2 to 1 µM
Compound: Cc1c(C(F)(F)F)nc2c(c1NC(=O)N=S(N)(=O)c1sc(C(C)(C)O)cc1F)CCC2 (stereo not drawn) [Compound 632, 3-Fluoro-5-(2-hydroxypropan-2-yl)-N′-((3-methyl-2-(trifluoromethyl)-6,7-dihydro-5H-cyclopenta[b]pyridin-4-yl)carbamoyl)thiophene-2-sulfonimidamide]

IC50 [1]: 5 to 30 µM
Compound: Cc1c(C2CCC2)nc2c(c1NC(=O)N=S(N)(=O)c1cnc(C(C)(C)O)s1)CCC2 (stereo not drawn) [Compound 649, N′-((2-cyclobutyl-3-methyl-6,7-dihydo-5H-cyclopenta[b]pyridin-4-yl)carbamoyl)-2-(2-hydroxypropan-2-yl)thiazole-5-sulfonimidamide]

IC50 [2]: 1 to 5 µM
Compound: CC1CCc2c1nc1c(c2NC(=O)N=S(N)(=O)c2cc(C(C)(C)O)cs2)CCC1 (single isomer, unassigned) [Compound 141ba, (S,S) or (S,R)-4-(2-hydroxypropan-2-yl)-N′-((3-methyl-1,2,3,5,6,7-hexahy-drodicyclopenta[b,e]pyridin-8-yl)carbamoyl)thiophene-2-sulfonimidamide]

IC50 [1]: 0.04 to 0.2 µM
Compound: CCc1csc(S(N)(=O)=NC(=O)Nc2c3c(nc4c2CC[C@H]4C)CCC3)c1 (stereo partly drawn) [Compound 721c, 4-Ethyl-N′-(((R)-3-methyl-1,2,3,5,6,7-hexahydrodicyclopenta [b,e]pyridin-8-yl)carbamoyl)thiophene-2-sulfonimidamide]

IC50 [1]: 5 to 30 µM
Compound: N[S@](=O)(=NC(=O)Nc1c2c(nc(C3CC3)c1C1CC1)CCC2)c1ccn(C(F)F)n1 [Compound 728a]

IC50 (Table B2, class symbols, read-out: hTHP-1 IC50): 0.04 to 0.2 µM
Compound: CCc1nc2c(c(NC(=O)N=S(N)(=O)c3sc(C(C)(C)O)cc3F)c1C1CC1)CCC2 (single isomer, unassigned) [Compound 631b, (R) or (S)-N′-((3-cyclopropyl-2-ethyl-6,7-dihydro-5H-cyclopenta[b]pyridin-4-yl)carbamoyl)-3-fluoro-5-(2-hydroxypropan-2-yl)thiophene-2-sulfonimidamide]

IC50 (Homo sapiens, THP-1, Table B2, numeric bounds, read-out: hTHP-1 IC50): > 30 µM
Compound: CN(C)Cc1nc(C(C)(C)O)sc1[S@](N)(=O)=NC(=O)Nc1c2c(nc3c1CCC3(C)C)CCC2 [Compound 709]

IC50 (Homo sapiens, THP-1, Table B4, class symbols, read-out: hTHP-1 IC50): 0.008 to 0.04 µM
Compound: CCn1cc(F)c(S(N)(=O)=NC(=O)Nc2c3c(nc(C(F)(F)F)c2-c2ccccc2F)CCC3)n1 (stereo not drawn) [Example 746, 1-Ethyl-4-fluoro-N′-((3-(2-fluorophenyl)-2-(trifluoromethyl)-6,7-dihydro-5H-cyclopenta[b]pyridin-4-yl)carbamoyl)-1H-pyrazole-3-sulfonimidamide]

IC50 [2]: 0.04 to 0.2 µM
Compound: CC(C)(O)c1ncc(S(N)(=O)=NC(=O)Nc2c3c(nc4c2CCC4(C)C)CCC3)s1 (single isomer, unassigned) [Compound 153b, (R) or (S)-N′-((3,3-dimethyl-1,2,3,5,6,7-hexahydro-dicyclopenta[b,e]pyridin-8-yl)carbamoyl)-2-(2-hydroxypropan-2-yl)thiazole-5-sulfonimidamide]
